The text below walks through data of patent US8394968B2, “Hepatitis C virus inhibitors” (Bristol-Myers Squibb Company, priority 2009, dated 2013).

SMILES strings stand for the structures. Like-named read-outs stand apart in the source and are kept apart here.

For the assay, the system named is HCV 1b genotype. Description: HCV Replicon assay (HCV-neo replicon cells, wild-type; luciferase reporter variants also used). Conditions: Hepatitis C virus, HCV 1b genotype replicon. The format is cell-based. How it is done:
An HCV Replicon assay was utilized in the present disclosure, and was prepared, conducted and validated as described in commonly owned PCT/US2006/022197 and in O'Boyle et. al. Antimicrob Agents Chemother. 2005 April; 49(4):1346-53. Assay methods incorporating luciferase reporters have also been used as described (Apath.com).
HCV-neo replicon cells and replicon cells containing mutations in the NS5A region were used to test the currently described family of compounds. The compounds were determined to have more than 10-fold less inhibitory activity on cells containing mutations than wild-type cells. Thus, the compounds of the present disclosure can be effective in inhibiting the function of the HCV NS5A protein and are understood to be as effective in combinations as previously described in application PCT/US2006/022197 and commonly owned WO/04014852. Further, the compounds of the present disclosure can be effective against the HCV 1b genotype. It should also be understood that the compounds of the present disclosure can inhibit multiple genotypes of HCV. […] In one embodiment, compounds of the present disclosure are inhibitory versus 1a, 1b, 2a, 2b, 3a, 4a, and 5a genotypes.
For orientation: In antiviral work, replicon cells carry a viral genome segment that copies itself.

On to `COC(=O)NC(C(=O)N1CCC[C@H]1c1nc2ccc(-c3ccc(-c4ccc5c(ccc6[nH]c([C@@H]7CCCN7C(=O)C(NC(=O)OC)c7ccccc7)nc65)c4)cc3)cc2[nH]1)c1ccccc1` (stereo in doubt) [J.27c, methyl ((1R)-2-((2S)-2-(7-(4-(2-((2S)-1-((2R)-2-((methoxycarbonyl)amino)-2-phenylacetyl)-2-pyrrolidinyl)-1H-benzimidazol-5-yl)phenyl)-1H-naphtho[1,2-d]imidazol-2-yl)-1-pyrrolidinyl)-2-oxo-1-phenylethyl)carbamate], for which the concentration giving a half-maximal response (EC50) (read-out: EC50) came out at 0.003 nM.
On to `COC(=O)NC(C(=O)N1CCC[C@H]1c1nc2ccc(C#Cc3cccc(-c4[nH]cnc4[C@@H]4CCCN4C(=O)[C@@H](NC(=O)OC)C(C)C)c3)cc2[nH]1)C(C)C` (stereo in doubt) [J.28l, methyl ((1S)-1-(((2S)-2-(5-(3-((2-((2S)-1-((2R)-2-((methoxycarbonyl)amino)-3-methylbutanoyl)-2-pyrrolidinyl)-1H-benzimidazol-5-yl)ethynyl)phenyl)-1H-imidazol-4-yl)-1-pyrrolidinyl)carbonyl)-2-methylpropyl)carbamate], for which the 50% effective concentration (EC50) was 4.57 to 99 nM (class symbol, read-out: EC50 Range) and 7 nM (read-out: EC50).

For orientation: EC50 means the concentration at which the effect is half-maximal.
